The test system of one experiment is SARS-CoV-2. Nature of the experiment: microbe, parasite or virus in culture. In kind it is cell-based. The conditions noted are these: for EC50: Severe acute respiratory syndrome coronavirus 2, Vero C1008, in Primates, read-out: EC50 (effective concentration that gave half-maximal response), inhibition of SARS-CoV-2 infection; for inhibition of SARS-CoV-2 infection: VeroE6 plaque reduction assay, dose-dependent analysis.

A further experiment addresses calmodulin (Homo sapiens, UniProt P0DP23). As to conditions: Winkler 1987; Zimmer and Hofmann 1984; Reiermann and Rüegg 1986; cited from earlier work.

Take `CN1CCN(CCCN2c3ccccc3Sc3ccc(C(F)(F)F)cc32)CC1` [TFP, Trifluoperazine]: in the experiment with SARS-CoV-2, the EC50 was 7.7 µM and the “inhibition of SARS-CoV-2 infection” value is on record as “potently inhibited SARS-CoV-2 infection in a dose-dependent fashion”.

Turning to `CC(C)COCC(CN(Cc1ccccc1)c1ccccc1)N1CCCC1` (centres unmarked) [BPD, Bepridil], in the experiment with SARS-CoV-2, the EC50 was 7.13 µM and the “inhibition of SARS-CoV-2 infection” value is given as “strong inhibition of SARS-CoV-2 infection in a dose-dependent manner”. Also, on calmodulin, the inhibition of calmodulin entry is given as “inhibit calmodulin”.

Values taken from patent US20230346793A1, “Compositions and Methods for Treating SARS-CoV-2” (priority 2020, published 2023).
